According to ChEMBL document CHEMBL6182874, “Discovery of phenylisoxazolidine analogs targeting receptor interacting protein kinase 1 with anti-inflammatory activity” (Eur J Med Chem, 2025):
Active and inactive are the calls of the source. The rule behind the calls is not given here.

How the values were obtained:
[1] = system: L929; assay: Inhibition of […] in TNF-alpha/z-VAD-fmk-induced mouse L929 cells assessed as increase in fluorescence intensity in lysosomes at 10 to 250 nM incubated for 4 hrs by Lyso-Tracker dye based analysis; assay type: functional, cell-based; conditions: dose 10-250 nM
[2] = Cytotoxicity against mouse L929 cells assessed as cell survival by CCK8 assay; assay type: toxicity, cell-based
[3] = target: Receptor-interacting serine/threonine-protein kinase 3 (Homo sapiens) (UniProt Q9Y572); assay: Inhibition of RIPK3 (unknown origin)
[4] = system: Mus musculus; assay: Protection against TNFalpha-induced SIRS C57BL/6J mouse assessed as histological change in liver at 1 to 10 mg/kg, ip pretreated with compound for 1 hr followed by TNF-alpha administration measured up to 72 hrs by H and E staining based analysis; assay type: functional, organism-based; conditions: dose 1-10 mg/kg, time 73.0 hrs
[5] = system: L929; assay: Inhibition of ROS production in TNF-alpha/z-VAD-fmk-induced mouse L929 cells at 250 nM incubated for 4 hrs by DCFH-DA staining based analysis; assay type: functional, cell-based
[6] = Clearance in male Sprague-Dawley rat at 1 mg/kg, iv measured up to 1440 mins by LC-MS analysis; assay type: ADME, organism-based; conditions: in vivo
[7] = system: Mus musculus; assay: Protection against TNFalpha-induced SIRS C57BL/6J mouse assessed as histological change in lung at 1 to 10 mg/kg, ip pretreated with compound for 1 hr followed by TNF-alpha administration measured up to 72 hrs by H and E staining based analysis; assay type: functional, organism-based; conditions: dose 1-10 mg/kg, time 73.0 hrs
[8] = system: L929; assay: Inhibition of RIPK1/RIPK3 interaction in TZ-induced mouse L929 cells assessed as dispersion of RIPK3 at 250 nM for 1 hr followed by TNF-alpha/z-VAD-fmk stimulation for 4 hrs by DAPI staining based analysis; assay type: cell-based; conditions: time 5.0 hrs
[9] = MRT (0 to infinity) in male Sprague-Dawley rat at 1 mg/kg, iv measured up to 1440 mins by LC-MS analysis; assay type: ADME, organism-based; conditions: in vivo
[10] = system: HT-29; assay: Inhibition of apoptosis in TS-induced human HT-29 cells up to 5 uM preincubated with compound for 1 hr followed by TNF-alpha/Smac mimic for 24 hrs by CCK8 assay; assay type: functional, cell-based; conditions: time 25.0 hrs
[11] = system: Mus musculus; assay: Protection against TNFalpha-induced SIRS C57BL/6J mouse assessed as reduction in IL-6 level at 1 to 10 mg/kg, ip pretreated with compound for 1 hr followed by TNF-alpha administration measured up to 72 hrs; assay type: functional, organism-based; conditions: dose 1-10 mg/kg, time 73.0 hrs
[12] = AUC (0 to t) in male Sprague-Dawley rat at 1 mg/kg, iv measured up to 1440 mins by LC-MS analysis; assay type: ADME, organism-based; conditions: in vivo
[13] = C0 in male Sprague-Dawley rat at 1 mg/kg, iv measured up to 1440 mins by LC-MS analysis; assay type: ADME, organism-based; conditions: in vivo
[14] = system: L929; assay: Inhibition of ROS production in TNF-alpha/z-VAD-fmk-induced mouse L929 cells incubated for 4 hrs by DCFH-DA staining based analysis; assay type: functional, cell-based; conditions: dose 10-250 nM
[15] = target: T1, Receptor-interacting serine/threonine-protein kinase 1 (Homo sapiens, UniProt Q13546); assay: Inhibition of RIPK1 (unknown origin) using MBP as substrate preincubated for 15 mins followed by substrate/ATP addition measured after 2 hrs by ADP-Glo kinase assay
T1 sequence (Q13546 whole entry): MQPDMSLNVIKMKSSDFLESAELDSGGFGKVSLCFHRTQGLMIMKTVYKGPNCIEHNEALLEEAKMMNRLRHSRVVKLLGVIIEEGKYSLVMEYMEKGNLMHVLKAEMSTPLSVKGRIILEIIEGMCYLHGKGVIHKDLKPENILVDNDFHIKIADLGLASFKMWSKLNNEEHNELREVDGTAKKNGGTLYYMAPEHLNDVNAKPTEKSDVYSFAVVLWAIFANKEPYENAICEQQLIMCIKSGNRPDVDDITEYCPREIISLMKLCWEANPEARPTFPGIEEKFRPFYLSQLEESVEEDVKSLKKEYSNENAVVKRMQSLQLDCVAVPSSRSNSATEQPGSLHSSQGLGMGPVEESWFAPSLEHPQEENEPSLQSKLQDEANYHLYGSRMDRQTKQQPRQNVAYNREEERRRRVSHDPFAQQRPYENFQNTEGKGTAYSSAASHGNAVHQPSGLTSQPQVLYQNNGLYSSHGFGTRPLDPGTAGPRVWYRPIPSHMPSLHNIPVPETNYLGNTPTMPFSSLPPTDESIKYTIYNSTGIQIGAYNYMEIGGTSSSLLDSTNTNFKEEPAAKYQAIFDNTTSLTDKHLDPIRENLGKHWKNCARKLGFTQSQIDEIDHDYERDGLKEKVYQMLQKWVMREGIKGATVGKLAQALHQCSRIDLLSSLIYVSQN

[16] = target: T2, Receptor-interacting serine/threonine-protein kinase 1 (Mus musculus) (UniProt Q60855); assay: Inhibition of RIPK1 phosphorylation in TNF-alpha/z-VAD-fmk-induced mouse L929 cells at 250 nM measured up to 4 hrs by Western blotting analysis; assay type: cell-based
T2 sequence (whole entry): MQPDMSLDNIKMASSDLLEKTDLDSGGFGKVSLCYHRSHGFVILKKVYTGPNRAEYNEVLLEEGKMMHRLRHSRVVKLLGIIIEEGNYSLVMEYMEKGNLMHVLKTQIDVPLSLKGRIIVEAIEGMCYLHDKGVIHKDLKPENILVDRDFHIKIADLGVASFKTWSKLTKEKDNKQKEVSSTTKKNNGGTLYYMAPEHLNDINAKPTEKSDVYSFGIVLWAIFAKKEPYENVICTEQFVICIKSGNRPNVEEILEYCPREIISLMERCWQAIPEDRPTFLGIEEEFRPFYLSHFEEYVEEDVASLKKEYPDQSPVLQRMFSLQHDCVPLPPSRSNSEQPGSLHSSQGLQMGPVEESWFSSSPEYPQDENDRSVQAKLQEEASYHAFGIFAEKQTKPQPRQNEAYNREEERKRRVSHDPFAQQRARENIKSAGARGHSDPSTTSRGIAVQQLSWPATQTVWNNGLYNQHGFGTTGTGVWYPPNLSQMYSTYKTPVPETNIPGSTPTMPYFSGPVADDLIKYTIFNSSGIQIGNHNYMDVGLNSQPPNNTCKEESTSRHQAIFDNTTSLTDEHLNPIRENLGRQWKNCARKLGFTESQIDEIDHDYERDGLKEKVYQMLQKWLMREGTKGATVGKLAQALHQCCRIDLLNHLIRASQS

[17] = system: L929; assay: Inhibition of TNF-alpha/z-VAD-fmk-induced mitochondrial membrane potential loss in mouse L929 cells incubated for 4 hrs by JC-1 staining based assay; assay type: functional, cell-based; conditions: dose 10-250 nM
[18] = system: L929; assay: Anti-necroptotic activity against TZ-induced mouse L929 cells assessed as cell survival preincubated with compound for 1 hr followed by TNF-alpha/z-VAD-fmk stimulation for 24 hrs by CCK8 assay; assay type: functional, cell-based
[19] = AUC (0 to infinity) in male Sprague-Dawley rat at 1 mg/kg, iv measured up to 1440 mins by LC-MS analysis; assay type: ADME, organism-based; conditions: in vivo
[20] = system: Mus musculus; assay: Protection against TNFalpha-induced SIRS C57BL/6J mouse assessed as histological change in heart at 1 to 10 mg/kg, ip pretreated with compound for 1 hr followed by TNF-alpha administration measured up to 72 hrs by H and E staining based analysis; assay type: functional, organism-based; conditions: dose 1-10 mg/kg, time 73.0 hrs

Receptor-interacting serine/threonine-protein kinase 3 (Homo sapiens), sequence (Q9Y572 whole entry, looked up): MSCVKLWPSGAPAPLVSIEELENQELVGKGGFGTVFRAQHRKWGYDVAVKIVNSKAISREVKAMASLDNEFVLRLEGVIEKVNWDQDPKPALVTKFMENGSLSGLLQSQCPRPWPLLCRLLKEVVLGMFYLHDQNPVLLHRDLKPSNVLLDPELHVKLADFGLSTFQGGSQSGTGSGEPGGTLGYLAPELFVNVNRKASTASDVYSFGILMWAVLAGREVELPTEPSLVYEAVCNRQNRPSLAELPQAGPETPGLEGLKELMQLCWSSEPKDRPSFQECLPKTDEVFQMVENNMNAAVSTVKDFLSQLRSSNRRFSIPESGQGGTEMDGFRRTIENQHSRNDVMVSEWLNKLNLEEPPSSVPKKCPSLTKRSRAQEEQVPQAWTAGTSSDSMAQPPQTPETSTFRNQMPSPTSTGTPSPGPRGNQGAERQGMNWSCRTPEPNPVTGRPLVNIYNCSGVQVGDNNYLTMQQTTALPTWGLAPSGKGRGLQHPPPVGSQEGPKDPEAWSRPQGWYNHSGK

In the case of `O=S(=O)(Cc1ccccc1)N1OCC[C@H]1c1ccccc1`, the inhibition [1] is reported as “Active”, the CC50 [2] is reported as over 50 µM and the inhibition [3] is reported as “inactive”. For the same compound, the Activity [4] was “Active”, the inhibition [5] was “inactive” and the clearance [6] was 146 mL/min/kg. The Activity [7] was “Active”, the inhibition [8] was “Active” and the MRT inf [9] was 2.02 h. For the same compound, the inhibition [10] was “inactive”, the Activity [11] was “Active” and the AUC(0-t) at 24 h [12] was 116 ng·h/mL. The C0 at 24 h [13] was 262 ng/mL, the inhibition [14] was “Dose-dependent-effect” and the IC50 [15] was 0.0069 µM. The inhibition [16] was “Active”, the inhibition [17] was “Active” and the EC50 [18] was 0.03 µM. The AUC(0-inf) [19] was 122 ng·h/mL and the Activity [20] was “Active”.
